Measured values reported in patent US20250195521A1 (Revolution Medicines, Inc., priority 2020, published 2025).

Assays:
Format in all cases: biochemical
[1] = target: KRAS G13D (Homo sapiens (Human), UniProt P01116+P62937, G13D); assay: Ras-Raf disruption/FRET/MOA assay, KRAS G13D; conditions: read-out: KRAS G13D FRET IC50
Description: (§1) Disruption of B-Raf Ras-Binding Domain (BRAF^RBD) Interaction with K-Ras by Compounds of the Invention (Also Called a FRET Assay or an MOA Assay)
(§2) Note—The following protocol describes a procedure for monitoring disruption of K-Ras G12C (GMP-PNP) binding to BRAF^RBD by a compound of the invention. This protocol may also be executed substituting other Ras proteins or nucleotides, such as K-Ras G12D and K-Ras G13D.
(§3) The purpose of this biochemical assay was to measure the ability of test compounds to facilitate ternary complex formation between a nucleotide-loaded K-Ras isoform and Cyclophilin A; the resulting ternary complex disrupts binding to a BRAF^RBD construct, inhibiting K-Ras signaling through a RAF effector. Data is reported as IC50 values.
(§4) In assay buffer containing 25 mM HEPES pH 7.3, 0.002% Tween20, 0.1% BSA, 100 mM NaCl and 5 mM MgCl2, tagless Cyclophilin A, His6-K-Ras-GMPPNP, and GST-BRAF^RBD were combined in a 384-well assay plate at final concentrations of 25 μM, 12.5 nM, and 50 nM, respectively. Compound was present in plate wells as a 10-point 3-fold dilution series starting at a final concentration of 30 μM. After incubation at 25° C. for 3 hours, a mixture of anti-His Eu—W1024 and anti-GST allophycocyanin was then added to assay sample wells at final concentrations of 10 nM and 50 nM, respectively, and the reaction incubated for an additional 1.5 hours. […] Compounds that facilitate disruption of a K-Ras: RAF complex were identified as those eliciting a decrease in the TR-FRET ratio relative to DMSO control wells.

[2] = target: KRAS G12D (Homo sapiens (Human), UniProt P01116+P62937, G12D); assay: Ras-Raf disruption/FRET/MOA assay, KRAS G12D; conditions: read-out: KRAS G12D FRET IC50
Description: as §1, §2, §3, §4

[3] = target: KRAS G12V (Homo sapiens (Human), UniProt P01116+P62937, G12V); assay: Ras-Raf disruption/FRET/MOA assay, KRAS G12V; conditions: read-out: KRAS G12V FRET IC50
Description: as §1, §2, §3, §4

[4] = target: KRAS G12C (Homo sapiens (Human), UniProt P01116+P62937, G12C); assay: Ras-Raf disruption/FRET/MOA assay, KRAS G12C; conditions: read-out: KRAS G12C FRET data IC50
Description: as §1, §2, §3, §4

[5] = target: KRAS WT (Homo sapiens (Human), UniProt P01116+P62937); assay: Ras-Raf disruption/FRET/MOA assay, KRAS WT; conditions: read-out: KRAS WT FRET IC50
Description: as §1, §2, §3, §4

[6] = target: KRAS G12S (Homo sapiens (Human), UniProt P01116+P62937, G12S); assay: Ras-Raf disruption/FRET/MOA assay, KRAS G12S; conditions: read-out: KRAS G12S FRET IC50
Description: as §1, §2, §3, §4

[7] = target: KRAS G13C (Homo sapiens (Human), UniProt P01116+P62937, G13C); assay: Ras-Raf disruption/FRET/MOA assay, KRAS G13C; conditions: read-out: KRAS G13C FRET IC50
Description: as §1, §2, §3, §4

[8] = target: NRAS G12C (Homo sapiens (Human), UniProt P01111+P62937, G12C); assay: Ras-Raf disruption/FRET/MOA assay, NRAS G12C; conditions: read-out: NRAS G12C FRET data IC50
Description: as §1, §2, §3, §4

Sequence of KRAS G13C (P01116 other isoform, or with tags, fused parts or gaps G13C): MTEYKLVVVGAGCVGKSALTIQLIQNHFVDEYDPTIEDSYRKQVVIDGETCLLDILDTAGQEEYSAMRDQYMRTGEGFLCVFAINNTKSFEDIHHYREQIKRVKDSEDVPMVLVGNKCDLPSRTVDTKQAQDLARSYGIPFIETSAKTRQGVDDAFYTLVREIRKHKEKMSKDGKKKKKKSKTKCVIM
Sequence of KRAS G13C (P62937 whole entry): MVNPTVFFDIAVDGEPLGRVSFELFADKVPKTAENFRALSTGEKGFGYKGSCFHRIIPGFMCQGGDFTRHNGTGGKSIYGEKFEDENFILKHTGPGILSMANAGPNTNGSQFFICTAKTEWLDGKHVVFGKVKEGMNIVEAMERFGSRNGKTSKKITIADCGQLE
Sequence of NRAS G12C (P01111 whole entry G12C): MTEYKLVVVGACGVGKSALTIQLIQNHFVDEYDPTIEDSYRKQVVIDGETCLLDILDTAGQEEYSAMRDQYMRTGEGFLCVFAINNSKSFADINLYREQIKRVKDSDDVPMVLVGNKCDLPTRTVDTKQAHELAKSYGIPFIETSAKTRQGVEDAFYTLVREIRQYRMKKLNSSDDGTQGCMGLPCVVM
Sequence of NRAS G12C (P62937 whole entry): as the sequence (P62937 whole entry) above
Sequence of KRAS G12V (P01116 other isoform, or with tags, fused parts or gaps G12V): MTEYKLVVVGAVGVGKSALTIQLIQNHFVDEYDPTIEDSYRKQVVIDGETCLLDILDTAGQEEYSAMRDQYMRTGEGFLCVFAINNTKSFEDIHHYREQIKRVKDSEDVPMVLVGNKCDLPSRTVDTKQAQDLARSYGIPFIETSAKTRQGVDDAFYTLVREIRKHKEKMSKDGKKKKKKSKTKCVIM
Sequence of KRAS G12V (P62937 whole entry): as the sequence (P62937 whole entry) above
Sequence of KRAS G12S (P01116 other isoform, or with tags, fused parts or gaps G12S): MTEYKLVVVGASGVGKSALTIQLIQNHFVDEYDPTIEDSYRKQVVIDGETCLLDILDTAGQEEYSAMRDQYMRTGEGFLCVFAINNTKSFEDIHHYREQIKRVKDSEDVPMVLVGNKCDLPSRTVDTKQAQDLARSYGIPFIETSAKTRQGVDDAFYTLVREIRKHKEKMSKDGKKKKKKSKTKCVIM
Sequence of KRAS G12S (P62937 whole entry): as the sequence (P62937 whole entry) above
Sequence of KRAS G12D (P01116 other isoform, or with tags, fused parts or gaps G12D): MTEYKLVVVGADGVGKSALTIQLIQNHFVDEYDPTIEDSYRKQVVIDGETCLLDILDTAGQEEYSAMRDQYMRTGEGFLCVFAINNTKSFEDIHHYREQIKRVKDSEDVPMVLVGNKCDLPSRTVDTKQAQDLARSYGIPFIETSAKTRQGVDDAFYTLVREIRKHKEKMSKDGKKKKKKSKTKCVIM
Sequence of KRAS G12D (P62937 whole entry): as the sequence (P62937 whole entry) above
Sequence of KRAS WT (P01116 other isoform, or with tags, fused parts or gaps): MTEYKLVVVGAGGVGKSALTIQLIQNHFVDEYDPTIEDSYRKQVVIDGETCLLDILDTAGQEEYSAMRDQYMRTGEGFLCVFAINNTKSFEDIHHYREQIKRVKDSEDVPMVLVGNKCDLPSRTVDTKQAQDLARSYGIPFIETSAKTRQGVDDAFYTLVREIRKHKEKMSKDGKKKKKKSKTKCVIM
Sequence of KRAS WT (P62937 whole entry): as the sequence (P62937 whole entry) above
Sequence of KRAS G13D (P01116 other isoform, or with tags, fused parts or gaps G13D): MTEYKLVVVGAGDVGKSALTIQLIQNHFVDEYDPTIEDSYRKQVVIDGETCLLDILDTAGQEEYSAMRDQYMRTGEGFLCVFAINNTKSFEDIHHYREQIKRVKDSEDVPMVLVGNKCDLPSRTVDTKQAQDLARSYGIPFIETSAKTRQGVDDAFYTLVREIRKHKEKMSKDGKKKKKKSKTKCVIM
Sequence of KRAS G13D (P62937 whole entry, the tested form may be a part): as the sequence (P62937 whole entry) above
Sequence of KRAS G12C (P01116-2 other isoform, or with tags, fused parts or gaps G12C): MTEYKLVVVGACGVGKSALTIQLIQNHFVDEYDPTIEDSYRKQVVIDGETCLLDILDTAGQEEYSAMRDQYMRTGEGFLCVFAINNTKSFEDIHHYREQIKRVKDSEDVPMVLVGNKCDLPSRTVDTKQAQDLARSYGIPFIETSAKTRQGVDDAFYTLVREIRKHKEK
Sequence of KRAS G12C (P62937 whole entry): as the sequence (P62937 whole entry) above

SMILES: CCn1c(-c2cnccc2COC)c2c3cc(ccc31)-c1cc(O)cc(c1)C[C@H](NC(=O)[C@H](C(C)C)N(C)C(=O)N1CCCN(C(=O)[C@H]3CN3)CC1)C(=O)N1CCC[C@H](N1)C(=O)OCC(C)(C)C2 [Example 44]
- IC50 [1]: 100 to 1000 nM
- IC50 [2]: 100 to 1000 nM
- IC50 [3]: 10 to 100 nM
- IC50 [4]: 10 to 100 nM
- IC50 [5]: 10 to 100 nM
- IC50 [6]: 100 to 1000 nM
- IC50 [7]: 10 to 100 nM
- IC50 [8]: 10 to 100 nM

SMILES: CCn1c(-c2cnccc2COC)c2c3cc(ccc31)-c1cc(O)cc(c1)C[C@H](NC(=O)[C@H](C(C)C)N(C)C(=O)N1CCCN(C(=O)[C@@H]3CN3)CC1)C(=O)N1CCC[C@H](N1)C(=O)OCC(C)(C)C2 [Example 45]
- IC50 [1]: 100 to 1000 nM
- IC50 [2]: 100 to 1000 nM
- IC50 [3]: 100 to 1000 nM
- IC50 [4]: 10 to 100 nM
- IC50 [5]: 10 to 100 nM
- IC50 [6]: 100 to 1000 nM
- IC50 [7]: 10 to 100 nM
- IC50 [8]: 10 to 100 nM

SMILES: CCn1c(-c2cnccc2COC)c2c3cc(ccc31)-c1cc(O)cc(c1)C[C@H](NC(=O)[C@H](C(C)C)N(C)C(=O)c1ccc(NC(=O)[C@@H]3CN3)cn1)C(=O)N1CCC[C@H](N1)C(=O)OCC(C)(C)C2 [Example 46]
- IC50 [1]: 1000 to 10000 nM
- IC50 [2]: 1000 to 10000 nM
- IC50 [3]: 1000 to 10000 nM
- IC50 [4]: 100 to 1000 nM
- IC50 [5]: 1000 to 10000 nM
- IC50 [6]: 100 to 1000 nM
- IC50 [7]: 100 to 1000 nM
- IC50 [8]: 100 to 1000 nM

SMILES: CCn1c(-c2cnccc2COC)c2c3cc(ccc31)-c1cc(O)cc(c1)C[C@H](NC(=O)[C@@H](CN(C)C(=O)[C@@H]1CN1)C(C)C)C(=O)N1CCC[C@H](N1)C(=O)OCC(C)(C)C2 [Example 60]
- IC50 [1]: > 10000 nM
- IC50 [2]: > 10000 nM
- IC50 [3]: 1000 to 10000 nM
- IC50 [4]: 1000 to 10000 nM
- IC50 [5]: > 10000 nM
- IC50 [6]: > 10000 nM
- IC50 [7]: > 10000 nM
- IC50 [8]: > 10000 nM

SMILES: CCn1c(-c2cnccc2COC)c2c3cc(ccc31)-c1cccc(c1)C[C@H](NC(=O)[C@H](C(C)C)N(C)C(=O)CCN=C=Nc1ccccc1COC)C(=O)N1CCC[C@H](N1)C(=O)OCC(C)(C)C2 [Example 63]
- IC50 [1]: > 10000 nM
- IC50 [2]: 1000 to 10000 nM
- IC50 [3]: 1000 to 10000 nM
- IC50 [4]: 1000 to 10000 nM
- IC50 [5]: 1000 to 10000 nM
- IC50 [6]: 1000 to 10000 nM
- IC50 [7]: 1000 to 10000 nM
- IC50 [8]: 1000 to 10000 nM

SMILES: CCn1c(-c2cnccc2COC)c2c3cc(ccc31)-c1cccc(c1)C[C@H](NC(=O)[C@H](C(C)C)N(C)C(=O)CCN=C=Nc1ccc(N(C)C)cc1)C(=O)N1CCC[C@H](N1)C(=O)OCC(C)(C)C2 [Example 66]
- IC50 [1]: 1000 to 10000 nM
- IC50 [2]: 1000 to 10000 nM
- IC50 [3]: 1000 to 10000 nM
- IC50 [4]: 100 to 1000 nM
- IC50 [5]: 1000 to 10000 nM
- IC50 [6]: 1000 to 10000 nM
- IC50 [7]: 100 to 1000 nM
- IC50 [8]: 100 to 1000 nM

SMILES: CCn1c(-c2cnccc2COC)c2c3cc(ccc31)-c1cccc(c1)C[C@H](NC(=O)[C@H](C(C)C)N(C)C(=O)CCN=C=Nc1ccc(N3CCOCC3)cc1)C(=O)N1CCC[C@H](N1)C(=O)OCC(C)(C)C2 [Example 67]
- IC50 [1]: 1000 to 10000 nM
- IC50 [2]: 1000 to 10000 nM
- IC50 [3]: 1000 to 10000 nM
- IC50 [4]: 100 to 1000 nM
- IC50 [5]: 1000 to 10000 nM
- IC50 [6]: 1000 to 10000 nM
- IC50 [7]: 1000 to 10000 nM
- IC50 [8]: 100 to 1000 nM

SMILES: CCn1c(-c2cnccc2COC)c2c3cc(ccc31)-c1cccc(c1)C[C@H](NC(=O)[C@H](C(C)C)N(C)C(=O)CCN=C=NCc1c(OC)cccc1OC)C(=O)N1CCC[C@H](N1)C(=O)OCC(C)(C)C2 [Example 75]
- IC50 [1]: > 10000 nM
- IC50 [2]: > 10000 nM
- IC50 [3]: 1000 to 10000 nM
- IC50 [4]: 100 to 1000 nM
- IC50 [5]: > 10000 nM
- IC50 [6]: > 10000 nM
- IC50 [7]: > 10000 nM
- IC50 [8]: 100 to 1000 nM

SMILES: CCn1c(-c2cnccc2COC)c2c3cc(ccc31)-c1cccc(c1)C[C@H](NC(=O)[C@H](C(C)C)N1CC[C@@H](CN=C=NCCOC)C1)C(=O)N1CCC[C@H](N1)C(=O)OCC(C)(C)C2 [Example 80]
- IC50 [1]: > 10000 nM
- IC50 [2]: 1000 to 10000 nM
- IC50 [3]: 1000 to 10000 nM
- IC50 [4]: 100 to 1000 nM
- IC50 [5]: 1000 to 10000 nM
- IC50 [6]: 1000 to 10000 nM
- IC50 [7]: 1000 to 10000 nM
- IC50 [8]: 100 to 1000 nM

SMILES: CCn1c(-c2cnccc2COC)c2c3cc(ccc31)-c1cccc(c1)C[C@H](NC(=O)[C@H](C(C)C)N1CC[C@H](CN=C=Nc3ccc(OC)cc3)C1)C(=O)N1CCC[C@H](N1)C(=O)OCC(C)(C)C2 [Example 81]
- IC50 [1]: > 10000 nM
- IC50 [2]: > 10000 nM
- IC50 [3]: 1000 to 10000 nM
- IC50 [4]: 100 to 1000 nM
- IC50 [5]: > 10000 nM
- IC50 [6]: > 10000 nM
- IC50 [7]: > 10000 nM
- IC50 [8]: 1000 to 10000 nM

SMILES: CCn1c(-c2cnccc2COC)c2c3cc(ccc31)-c1cc(O)cc(c1)C[C@H](NC(=O)[C@H](C(C)C)N(C)C(=O)CN1C(=O)[C@H]3N[C@H]3C1=O)C(=O)N1CCC[C@H](N1)C(=O)OCC(C)(C)C2 [Example 98]
- IC50 [1]: 1000 to 10000 nM
- IC50 [2]: 1000 to 10000 nM
- IC50 [3]: 1000 to 10000 nM
- IC50 [4]: 100 to 1000 nM
- IC50 [5]: 100 to 1000 nM
- IC50 [6]: 1000 to 10000 nM
- IC50 [7]: 100 to 1000 nM
- IC50 [8]: 1000 to 10000 nM

SMILES: CCn1c(-c2cnccc2COC)c2c3cc(ccc31)-c1cc(O)cc(c1)C[C@H](NC(=O)[C@@H](CN(C)C(=O)[C@H]1CN1)C(C)C)C(=O)N1CCC[C@H](N1)C(=O)OCC(C)(C)C2 [Example 99]
- IC50 [1]: > 10000 nM
- IC50 [2]: > 10000 nM
- IC50 [3]: 1000 to 10000 nM
- IC50 [4]: 1000 to 10000 nM
- IC50 [5]: > 10000 nM
- IC50 [6]: > 10000 nM
- IC50 [7]: > 10000 nM
- IC50 [8]: > 10000 nM

SMILES: CCn1c(-c2cnccc2COC)c2c3cc(ccc31)-c1cc(O)cc(c1)C[C@H](NC(=O)[C@H](C(C)C)N(C)C(=O)CCNC1=NCCO1)C(=O)N1CCC[C@H](N1)C(=O)OCC(C)(C)C2 [Example 120]
- IC50 [1]: 10 to 100 nM
- IC50 [2]: 100 to 1000 nM
- IC50 [3]: 100 to 1000 nM
- IC50 [4]: 100 to 1000 nM
- IC50 [5]: 10 to 100 nM
- IC50 [6]: 100 to 1000 nM
- IC50 [7]: 10 to 100 nM
- IC50 [8]: 100 to 1000 nM

SMILES: CCn1c(-c2cccnc2[C@H](C)OC)c2c3cc(ccc31)-c1cccc(c1)C[C@H](NC(=O)[C@H](C(C)C)N1CC[C@@H](CN=C=NCCOC)C1)C(=O)N1CCC[C@H](N1)C(=O)OCC(C)(C)C2 [Example 121]
- IC50 [1]: > 10000 nM
- IC50 [2]: 1000 to 10000 nM
- IC50 [3]: 1000 to 10000 nM
- IC50 [4]: 100 to 1000 nM
- IC50 [5]: 100 to 1000 nM
- IC50 [6]: 1000 to 10000 nM
- IC50 [7]: 100 to 1000 nM
- IC50 [8]: 100 to 1000 nM
